What was measured:
His-BIR3 (241-356, XIAP) = target: T1, His-BIR3 (241-356, XIAP) (Homo sapiens, UniProt P98170); test: XIAP-BIR3/SMAC Homogeneous Time Resolved Fluorescence (HTRF) Assay; assay type: binding; settings: 1 nM N-His-BIR3, 5 nM fluorescein labeled SMAC peptide
T1 construct: His-BIR3 (241-356, XIAP)
Method: A. XIAP-BIR3/SMAC Homogeneous Time Resolved Fluorescence (HTRF) Assay
Assays were performed in black, flat-bottom, 384-well plates. The final assay volume was 50 μL prepared from additions of His-BIR3 (241-356, XIAP), fluorescein labeled SMAC peptide, and test compounds in assay buffer consisting of 20 mM Sodium Phosphate, 1 mM EDTA, 50 mM NaCl, 50 μg/ml BSA, and 0.05% PLURONIC® F68. The reaction was incubated at room temperature for 60 minutes, following which 10 μl of mouse anti-6×His-terbium labeled Fab (Medarex, Cis-bio) was added to the reaction (40 μl) for an additional 30 minute incubation. The HTRF signal, ratio of fluorescence intensities at emission wavelengths for fluorescein acceptor (520 nm) and terbium donor (615 nm), the 520/615 ratio, generated by the reaction was then measured on the Envision Plate Reader Inhibition data were calculated from the 520/615 ratio generated by the no protein control reactions for 100% inhibition and vehicle-only reactions for 0% inhibition. The final concentration of reagents in the assay was 1 nM N-His-BIR3 (241-356, XIAP), 5 nM fluorescein labeled SMAC peptide, 0.25 nM anti-His-Tb-Fab, and 0.1% DMSO. Dose response curves were generated to determine the concentration required for inhibiting 50% of the HTRF signal (IC50). Compounds were dissolved at 3 mM in dimethylsulfoxide (DMSO) and evaluated at eleven serially diluted concentrations. IC50 and Ki values were derived by non-linear regression analysis.

[1] = target: T2, His-BIR2-3 (125-356, C202A/C213G, XIAP) (Homo sapiens, UniProt P98170, C202A/C213G); test: XIAP-BIR2-3 dimeric SMAC Peptide Homogeneous Time Resolved Fluorescence (HTRF) Assay; assay type: binding; settings: 0.5 nM N-His-BIR2-3, 20 nM fluorescein labeled dimeric SMAC peptide
T2 construct: His-BIR2-3 (125-356, C202A/C213G, XIAP)
T2 sequence (P98170 125-356 C202A/C213G): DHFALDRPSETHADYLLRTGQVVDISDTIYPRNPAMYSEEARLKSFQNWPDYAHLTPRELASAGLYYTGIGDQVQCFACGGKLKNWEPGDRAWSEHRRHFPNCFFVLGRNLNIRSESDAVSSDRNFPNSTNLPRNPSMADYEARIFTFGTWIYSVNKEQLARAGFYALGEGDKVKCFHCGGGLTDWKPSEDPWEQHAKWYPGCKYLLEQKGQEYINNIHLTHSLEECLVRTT
Method: B. XIAP-BIR2-3 dimeric SMAC Peptide Homogeneous Time Resolved Fluorescence (HTRF) Assay
Assays were performed in black, flat-bottom, 384-well plates. The final assay volume was 50 μL prepared from additions of His-BIR2-3 (125-356, C202A/C213G, XIAP), fluorescein labeled dimeric SMAC peptide, and test compounds in assay buffer consisting of 20 mM Sodium Phosphate, 1 mM EDTA, 50 mM NaCl, 50 μg/ml BSA, and 0.05% PLURONIC® F68. The reaction was incubated at room temperature for 60 minutes, following which 10 μl of mouse anti-6×His-Tb IgG (Medarex, Cis-bio) was added to the reaction (40 μl) for an additional 30 minute incubation. The HTRF signal, ratio of fluorescence intensities at emission wavelengths for fluorescein acceptor (520 nm) and terbium donor (615 nm), the 520/615 ratio, generated by the reaction was then measured on the Envision Plate Reader. Inhibition data were calculated from the 520/615 ratio generated by the no protein control reactions for 100% inhibition and vehicle-only reactions for 0% inhibition. The final concentration of reagents in the assay was 0.5 nM N-His-BIR2-3(125-356, C202A/C213G, XIAP), 20 nM fluorescein labeled dimeric SMAC peptide, 0.25 nM anti-His-Tb-Fab, and 0.1% DMSO. Dose response curves were generated to determine the concentration required for inhibiting 50% of the HTRF signal (IC50). Compounds were dissolved at 3 mM in dimethylsulfoxide (DMSO) and evaluated at eleven serially diluted concentrations. IC50 and Ki values were derived by non-linear regression analysis.

T1 sequence (P98170 241-356): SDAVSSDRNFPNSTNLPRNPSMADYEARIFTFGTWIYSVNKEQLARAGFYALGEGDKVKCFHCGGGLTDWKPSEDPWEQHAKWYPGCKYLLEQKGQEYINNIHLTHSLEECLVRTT

## CN[C@@H](C)C(=O)N[C@H](C(=O)N1C[C@@H](c2ccc(C[C@H](NC(=O)[C@@H](NC(=O)[C@H](C)NC)C(C)(C)SCC(=O)N(C)C[C@@H](O)CO)C(=O)N[C@@H]3CCCc4ccccc43)cc2)C[C@H]1C(=O)N[C@@H]1CCCc2ccccc21)C(C)(C)C [Example 1, (2S,4R)-4-(4-((S)-2-((R)-3-((2-(((R)-2,3-Dihydroxypropyl)(methyl)amino)-2-oxoethyl)thio)-3-methyl-2-((S)-2-(methylamino)propanamido)butanamido)-3-oxo-3-(((R)-1,2,3,4-tetrahydronaphthalen-1-yl)amino)propyl)phenyl)-1-((S)-3,3-dimethyl-2-((S)-2-(methylamino)propanamido)butanoyl)-N—((R)-1,2,3,4-tetrahydronaphthalen-1-yl)pyrrolidine-2-carboxamide]
His-BIR3 (241-356, XIAP)
  IC50: 1.7 nM
[1]
  IC50: 12.3 nM

## CN[C@@H](C)C(=O)N[C@H](C(=O)N1C[C@@H](c2ccc(C[C@H](NC(=O)[C@@H](NC(=O)[C@H](C)NC)C(C)(C)SCCO)C(=O)N[C@@H]3CCCc4ccccc43)cc2)C[C@H]1C(=O)N[C@@H]1CCCc2ccccc21)C(C)(C)C [Example 2, (2S,4R)-1-((S)-3,3-Dimethyl-2-((S)-2-(methylamino)propanamido)butanoyl)-4-(4-((S)-2-((R)-3-((2-hydroxyethyl)thio)-3-methyl-2-((S)-2-(methylamino)propanamido)butanamido)-3-oxo-3-(((R)-1,2,3,4-tetrahydronaphthalen-1-yl)amino)propyl)phenyl)-N—((R)-1,2,3,4-tetrahydronaphthalen-1-yl)pyrrolidine-2-carboxamide]
His-BIR3 (241-356, XIAP)
  IC50: 1.7 nM
[1]
  IC50: 7 nM

## CN[C@@H](C)C(=O)N[C@H](C(=O)N[C@@H](Cc1ccc([C@H]2C[C@@H](C(=O)N[C@@H]3CCCc4ccccc43)N(C(=O)[C@@H](NC(=O)[C@H](C)NC)C(C)(C)C)C2)cc1)C(=O)N[C@@H]1CCCc2ccccc21)C(C)(C)C [Example 3, (2S,4R)-4-(4-((S)-2-((S)-3,3-Dimethyl-2-((S)-2-(methylamino)propanamido)butanamido)-3-oxo-3-(((R)-1,2,3,4-tetrahydronaphthalen-1-yl)amino)propyl)phenyl)-1-((S)-3,3-dimethyl-2-((S)-2-(methylamino)propanamido)butanoyl)-N—((R)-1,2,3,4-tetrahydronaphthalen-1-yl)pyrrolidine-2-carboxamide]
His-BIR3 (241-356, XIAP)
  IC50: 1.1 nM
[1]
  IC50: 6.8 nM

## CN[C@@H](C)C(=O)N[C@H](C(=O)N1C[C@@H](NC(=O)c2ccc(C(=O)Nc3ccc(C[C@H](NC(=O)[C@@H](NC(=O)[C@H](C)NC)C(C)(C)SC)C(=O)N[C@@H]4CCCc5ccccc54)cc3)cc2)C[C@H]1C(=O)N[C@@H]1CCCc2ccccc21)C(C)(C)C [Example 4, N^1-((3S,5S)-1-((S)-3,3-Dimethyl-2-((S)-2-(methylamino)propanamido)butanoyl)-5-(((R)-1,2,3,4-tetrahydronaphthalen-1-yl)carbamoyl)pyrrolidin-3-yl)-N^4-(4-((S)-2-((R)-3-methyl-2-((S)-2-(methylamino)propanamido)-3-(methylthio)butanamido)-3-oxo-3-(((R)-1,2,3,4-tetrahydronaphthalen-1-yl)amino)propyl)phenyl)terephthalamide]
His-BIR3 (241-356, XIAP)
  IC50: 13.8 nM
[1]
  IC50: 2.9 nM

## CN[C@@H](C)C(=O)N[C@H](C(=O)N[C@@H](Cc1ccc(C(=O)N[C@H]2C[C@@H](C(=O)N[C@@H]3CCCc4ccccc43)N(C(=O)[C@@H](NC(=O)[C@H](C)NC)C(C)(C)C)C2)cc1)C(=O)N[C@@H]1CCCc2ccccc21)C(C)(C)C [Example 5, (2S,4S)-4-(4-((S)-2-((S)-3,3-Dimethyl-2-((S)-2-(methylamino)propanamido)butanamido)-3-oxo-3-(((R)-1,2,3,4-tetrahydronaphthalen-1-yl)amino)propyl)benzamido)-1-((S)-3,3-dimethyl-2-((S)-2-(methylamino)propanamido)butanoyl)-N—((R)-1,2,3,4-tetrahydronaphthalen-1-yl)pyrrolidine-2-carboxamide]
His-BIR3 (241-356, XIAP)
  IC50: 9 nM
[1]
  IC50: 13.7 nM

## CN[C@@H](C)C(=O)N[C@H](C(=O)N1C[C@@H](c2ccc(C[C@H](NC(=O)[C@@H](NC(=O)[C@H](C)NC)C(C)(C)SCC(=O)NC(CO)CO)C(=O)NC3CCCc4ccccc43)cc2)C[C@H]1C(=O)NC1CCCc2ccccc21)C(C)(C)C (stereo partly shown) [Example 6]
His-BIR3 (241-356, XIAP)
  IC50: 1.4 nM
[1]
  IC50: 8.1 nM

## CN[C@@H](C)C(=O)N[C@H](C(=O)N[C@@H](Cc1ccc([C@H]2C[C@@H](C(=O)N[C@@H](COC)c3ccccc3)N(C(=O)[C@@H](NC(=O)[C@H](C)NC)C(C)(C)C)C2)cc1)C(=O)N[C@@H]1CCCc2ccccc21)C(C)(C)C [Example 7, (2S,4R)-4-(4-((S)-2-((S)-3,3-Dimethyl-2-((S)-2-(methylamino)propanamido)butanamido)-3-oxo-3-(((R)-1,2,3,4-tetrahydronaphthalen-1-yl)amino)propyl)phenyl)-1-((S)-3,3-dimethyl-2-((S)-2-(methylamino)propanamido)butanoyl)-N-((R)-2-methoxy-1-phenylethyl)pyrrolidine-2-carboxamide]
His-BIR3 (241-356, XIAP)
  IC50: 48.4 nM
[1]
  IC50: 140 nM

## CN[C@@H](C)C(=O)N[C@H](C(=O)N[C@@H](Cc1ccc(NC(=O)c2ccc(C(=O)N[C@H]3C[C@@H](C(=O)N[C@@H]4CCCc5ccccc54)N(C(=O)[C@@H](NC(=O)[C@H](C)NC)C(C)(C)C)C3)cc2)cc1)C(=O)N[C@@H]1CCCc2ccccc21)C1CCCCC1 [Example 8, N^1-(4-((S)-2-((S)-2-Cyclohexyl-2-((S)-2-(methylamino)propanamido)acetamido)-3-oxo-3-(((R)-1,2,3,4-tetrahydronaphthalen-1-yl)amino)propyl)phenyl)-N^4-((3S,5S)-1-((S)-3,3-dimethyl-2-((S)-2-(methylamino)propanamido)butanoyl)-5-(((R)-1,2,3,4-tetrahydronaphthalen-1-yl)carbamoyl)pyrrolidin-3-yl)terephthalamide]
His-BIR3 (241-356, XIAP)
  IC50: 119 nM
[1]
  IC50: 9.5 nM

From patent US9637518B2, “IAP antagonists” (BRISTOL-MYERS SQUIBB COMPANY, priority 2014, dated 2017)
